The results in this text go back to patent US6835382B2, “Ii peptide therapeutics to enhance antigen presentation” (University of Massachusetts, priority 1996, dated 2004).

Non-standard residues stand in square brackets, D forms with d. Cit = NC(=O)NCCC[C@H](N)C(=O)O

The target in assay [1] is T1, murine E^d MHC class II allele (Mus musculus, UniProt P01904+P01915).
T1 sequence (P01904 26-255): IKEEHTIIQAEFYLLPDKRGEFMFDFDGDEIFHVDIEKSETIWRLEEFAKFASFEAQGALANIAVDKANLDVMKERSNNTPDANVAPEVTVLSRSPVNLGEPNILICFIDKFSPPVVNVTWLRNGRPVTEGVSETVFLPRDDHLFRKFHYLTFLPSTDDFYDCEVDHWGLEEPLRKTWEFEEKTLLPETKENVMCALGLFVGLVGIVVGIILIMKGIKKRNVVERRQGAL
T1 sequence (P01915 27-264 limits assumed): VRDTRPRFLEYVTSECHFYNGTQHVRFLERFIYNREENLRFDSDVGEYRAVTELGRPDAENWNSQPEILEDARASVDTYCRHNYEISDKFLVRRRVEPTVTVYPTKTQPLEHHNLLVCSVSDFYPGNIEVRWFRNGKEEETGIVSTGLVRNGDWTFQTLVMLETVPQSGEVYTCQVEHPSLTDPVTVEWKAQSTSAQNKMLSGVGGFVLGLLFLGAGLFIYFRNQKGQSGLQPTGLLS
Nature of the assay: antigenic peptide prepulse assay, E^d allele (fixed APC prepulsed with HEL106-116). Particulars: AE peptide 64 μM; for Activity in antigenic peptide prepulse assay, E^d (baseline without AE peptide = 1.00): Table 19, prepulse 12 μM HEL106-116. The class given is cell-based. Details: The A20 and CH27 B cell lymphoma lines express H-2^d and H-2^k alleles, respectively; endogenous in cells; host or cells: A20 B cell lymphoma (mitomycin C-treated or paraformaldehyde-fixed). As to the method:
(§1) In a second type of assay, the “peptide prepulse assay”, the antigenic peptide is incubated with paraformaldehyde-fixed APC for 6 h. The APC are washed and incubated for 24 h with the AE101 series homolog and the T cell hybridoma specific for the antigenic peptide. After that incubation, an aliquot of the culture supernatant is transferred to a second culture to measure the relative degree of T hybridoma stimulation, as reflected in the effect of released interleukins on the growth of an interleukin-dependent, indicator cell line, as described above.
(§2) The two above described assays measure different aspects of the molecular mechanism of the AE101 series of peptides. In the “simultaneous assay”, AE101 series peptides are thought to induce the release of endogenously bound peptides and to permit the binding of the second, specific antigenic peptide which is relatively abundant in the culture fluid. The AE101 series peptides enhance antigenic peptide-specific T cell responses in simultaneous assays. In the “peptide prepulse” assay, the specific antigenic peptide becomes bound to MHC class II molecules on the surface of the fixed APC during the 6 h prepulse incubation. The effect of the AE101 series homologs is then thought to release that antigenic peptide, resulting in an apparent suppression of the immune response.
(§3) The AE101 series peptides are thought to contact the MHC class II molecules at a discrete site outside the antigenic peptide-binding groove. AE101 peptide binding to this “Ii-KEY” site is thought to induce a conformational change in the MHC class II molecules accelerating the dissociation of previously bound antigenic peptide. […] The AE101 series peptides thus inhibit antigenic peptide-specific T cell responses in the “peptide prepulse” assays.
(§4) Antigenic peptide-specific T cell activation was measured by the following procedure. Mitomycin C-treated A20 cells (A^dE^d) or CH27 cells APC (A^kE^k) were generated by incubating 5×10^6 cells/mL for 20 min at 37° C. with 0.025 mg/mL of mitomycin C (Sigma) in Dulbecco's Modified Eaglel's Medium (DMEM)/10 mM N-2(hydroxyethylpiperazine-N″[2-ethanesulfonic acid] (HEPES), followed by two washes with four volumes of DMEM-5% fetal calf serum (FCS), 10 mM HEPES. Fixed APC were generated by treating 1×10^6 cells/mL for 5 min with 0.5% paraformaldehyde in PBS (pH 7.2), followed by two washes with four volumes of DMEM-10% FCS, 10 mM HEPES. T cell hybridomas were irradiated 2200 rads before each assay.
(§5) The “peptide prepulse assay” was carried out under essentially the same conditions as described for the “simultaneous assay” with the following modifications. Fixed APC were first incubated for 6 h at 1×10^6 cells/mL in complete DMEM-5% FCS in 24-well microculture plates (1 mL/well) with antigenic peptide, followed by four washes with 10 volumes of DMEM-5% FCS. The cells were then exposed to varying concentrations of AE101 series peptide (64 μM, 16 μM, 4 μM, and 1 μM) for 24 h in the presence of the T cell hybridoma specific to the antigenic peptide. Interleukin release from these cultures was measured by proliferation of HT-2 cells to interleukins in supernatants transferred from the primary culture. Generally, a single dose of 64 μM of each AE101 series peptide was used. The baseline T cell response was measured by culturing T hybridoma cells with the antigenic peptide-prepulsed APC in the absence of AE101 series peptides.
[…] […] Paraformaldehyde-treated APC (fixed APC) expressing MHC class II molecules were incubated with antigenic peptide for 6 h (HEL106-116 for E^d and PGCC81-104 for E^k). After this incubation, the prepulsed APC were washed and cultured with T hybridoma cells and AE101 series peptides. […] The AE101 series peptide concentrations were 64 μM for E^d and 16 μM for E^k. The dilutions of supernatant taken into the HT-2 cell assay were 1:4 for Ed and 1:2 for E^k.

In assay [2] the test system is murine E^k MHC class II allele. Nature of the assay: antigenic peptide prepulse assay, E^k allele (fixed APC prepulsed with PGCC81-104). It is filed as cell-based. Particulars: for Activity in antigenic peptide prepulse assay, E^k (baseline without AE peptide = 1.00): Table 19, prepulse 20 μM PGCC81-104. The procedure: as §1, §2, §3, §4, §5
Table 19: Activities of C-terminal truncation analogs of AE101 in an antigenic peptide prepulse assay. […] Paraformaldehyde-treated APC (fixed APC) expressing MHC class II molecules were incubated with antigenic peptide for 6 h (HEL106-116 for E^d and PGCC81-104 for E^k). After this incubation, the prepulsed APC were washed and cultured with T hybridoma cells and AE101 series peptides. The antigenic peptide concentration during the prepulse was 12 μM for Ed and 20 μM for E^k. The AE101 series peptide concentrations were 64 μM for E^d and 16 μM for E^k. […]

The mark [3] stands for this setting: Table 25, prepulse 24 μM antigenic peptide, supernatant 1:4.
Setting [4] is: Table 25, AE peptide 64 μM, prepulse 2.5 μM antigenic peptide, supernatant 1:10.
The mark [5] stands for this setting: Table 24, prepulse 24 μM antigenic peptide, supernatant 1:4.
The mark [6] stands for this setting: Table 24, AE peptide 64 μM, prepulse 0.625 μM antigenic peptide, supernatant 1:8.
Where [7] appears, read: Table 22, prepulse 6 μM antigenic peptide, supernatant 1:8.
Setting [8] is: Table 22, AE peptide 16 μM, prepulse 20 μM antigenic peptide, supernatant 1:2.
Setting [9] is: Table 20, prepulse 3 μM antigenic peptide, supernatant 1:2.
Where [10] appears, read: Table 20, AE peptide 16 μM, prepulse 20 μM antigenic peptide, supernatant 1:2.
The mark [11] stands for this setting: AE peptide 16 μM, supernatant 1:2.

On to Ac-LRLK HArg PK-NH2 [AE341], for which, in assay [1] (setting [3]), the “Activity in antigenic peptide prepulse assay, E^d (baseline = 1.00)” value (“Activity … E^d (baseline = 1.00)” for short) is reported as 0.12. Also, in assay [2] (setting [4]), the “Activity in antigenic peptide prepulse assay, E^k (baseline = 1.00)” value (shortened to “Activity … E^k (baseline = 1.00)”) is given as 1.10.
On the same counts, the results for Ac-L[Cit]NKLPK-NH2 [AE343] are 0.55 and 0.90.
As to Ac-LRLKWPK-NH2 [AE309], the “Activity … E^d (baseline = 1.00)” value in assay [1] (setting [5]) is listed as 0.44; in assay [1] (setting [3]), 0.48. The “Activity in antigenic peptide prepulse assay, E^d (baseline = 1.0)” value in assay [1] (Table 26, prepulse 24 μM antigenic peptide, supernatant 1:2) is on record as 0.25. Besides, the results for the “Activity … E^k (baseline = 1.00)” value in assay [2] (setting [6]) and in assay [2] (setting [4]) were 0.81 and 0.93, respectively. Besides, the “Activity in antigenic peptide prepulse assay, E^k (baseline = 1.0)” value in assay [2] (Table 26, AE peptide 64 μM, prepulse 1.25 μM antigenic peptide, supernatant 1:8) amounted to 0.98.
With Ac-LRMKLP k-NH2 [AE166], the “Activity … E^d (baseline = 1.00)” value is recorded as 0.11 in assay [1] (setting [7]) and 0.65 in assay [1] (setting [5]). The “Activity … E^k (baseline = 1.00)” value in assay [2] (setting [8]) amounted to 0.15; in assay [2] (setting [6]), 0.83.
Regarding Ac-L r MKLPK-NH2 [AE161], the “Activity … E^d (baseline = 1.00)” value in assay [1] (setting [7]) turned out to be 0.30. Also, the “Activity … E^k (baseline = 1.00)” value in assay [2] (setting [8]) is given as 0.85.
For Ac-Y N MKLPKSAK-NH2 [AE137], in assay [1] (setting [9]), the “Activity … E^d (baseline = 1.00)” value is 0.57. In assay [2] (setting [10]), the “Activity … E^k (baseline = 1.00)” value worked out at 0.72.
For Ac-Y Y MKLPKSAK-NH2 [AE140], in that order: 0.78 and 0.79.
Regarding “Ac-LRMKLP F-NH2 (Ac-LRMKLPF-NH2) [AE248]”, the “Activity … E^d (baseline = 1.00)” value in assay [1] (setting [3]) stood at 0.63. Further, in assay [2] (setting [4]), the “Activity … E^k (baseline = 1.00)” value was 0.98.
For the substance Ac-LRMKLPKPPP-NH2 [AE167], the “Activity in antigenic peptide prepulse assay, E^d (baseline without AE peptide = 1.00)” value in assay [1] (supernatant 1:4) is listed as 0.23. Also, in assay [2] (setting [11]), the “Activity in antigenic peptide prepulse assay, E^k (baseline without AE peptide = 1.00)” value is given as 0.01.
For Ac-YRM-NH2 [AE118], in that order: 0.68 and 0.35.
